Data as given in US11267822B2, “BET bromodomain protein degraders with cleavable linkers” (THE REGENTS OF THE UNIVERSITY OF MICHIGAN, priority 2017, dated 2022).
Several values for one entry are separate records, joined by “and”; a condition that tells them apart may be missing. Equal entries are not always repeated. One block for each molecule: values may come before it.

Columns and labels:
[1] = Pharmacokinetics in RS4;11 tumor-bearing mice (plasma and tumor concentrations); type: in vivo; conditions: for Cpd. No. 15 Concentration in plasma: IV 10 mg/kg Cpd. No. 15, RS4;11 tumor-bearing mice
From the text: The pharmacokinetics of Cpd. No. 15 in RS4;11 tumor-bearing mice show it is converted to Cpd. No. 52 in plasma and tumor tissue. BLOQ=below limit of detection; nd=not determined

BET protein = experiment: Pharmacodynamic effect in RS4;11 tumor tissue in mice (BET protein degradation); type: in vivo; conditions: RS4;11 tumor-bearing mice, intravenous dosing at 10 mg/kg
From the text: FIG. 1 is an illustration showing the pharmacodynamic effect of Cpd. No. 15 in RS4;11 tumor tissue in mice.
FIG. 2 is an illustration showing the pharmacodynamic effect of Cpd. No. 16 in RS4;11 tumor tissue in mice.
The pharmacodynamic effect of Cpd. No. 15 and Cpd.

MDA-MB-231 = experiment: Cell growth inhibition, CellTiter-Glo Luminescent Cell Viability Assay, MDA-MB-231; type: cell-based; conditions: MDA-MB-231 cells, 4 days
Protocol: (§1) Cell growth inhibitory activity of representative Compounds of the Disclosure was determined using the CellTiter-Glo® Luminescent Cell Viability Assay. Cells were seeded in 384-well white opaque cell culture plates at a density of 2,000 cells/well with serially diluted compounds and incubated at 37° C. in an atmosphere of 95% air and 5% CO2 for 4 days. Cell viability was determined using the CellTiter-Glo® Luminescent Cell Viability Assay Kit (Promega, Madison, Wis.) according to the manufacture's instruction. Briefly, a volume of CellTiter-Glo® Reagent equal to the volume of cell culture medium was added to each well, and then the plates were incubated at room temperature for 10-20 minutes. The luminescent signal was measured using a Tecan Infinite M1000 multimode microplate reader (Tecan, Morrisville, N.C.). The half maximal inhibitory concentration (IC50) in Table 3 was calculated using the GraphPad Prism 5 software (GraphPad Software, La Jolla, Calif.).

MOLM13 = experiment: Cell growth inhibition, CellTiter-Glo Luminescent Cell Viability Assay, MOLM13; type: cell-based; conditions: MOLM13 cells, 4 days
Protocol: as §1

Cpd. No. 15 Concentration in tumor ([1]; IV 10 mg/kg Cpd. No. 15, 1 h, Mouse 1 L tumor): BLOQ
Cpd. No. 15 Concentration in tumor ([1]; IV 10 mg/kg Cpd. No. 15, 1 h, Mouse 1 R tumor): BLOQ
Cpd. No. 15 Concentration in tumor ([1]; IV 10 mg/kg Cpd. No. 15, 1 h, Mouse 2 L tumor): BLOQ
Cpd. No. 15 Concentration in tumor ([1]; IV 10 mg/kg Cpd. No. 15, 1 h, Mouse 2 R tumor): BLOQ
Cpd. No. 15 Concentration in tumor ([1]; IV 10 mg/kg Cpd. No. 15, 3 h, Mouse 1 L tumor): BLOQ
Cpd. No. 15 Concentration in tumor ([1]; IV 10 mg/kg Cpd. No. 15, 3 h, Mouse 1 R tumor): BLOQ
Cpd. No. 15 Concentration in tumor ([1]; IV 10 mg/kg Cpd. No. 15, 3 h, Mouse 2 L tumor): BLOQ
Cpd. No. 15 Concentration in tumor ([1]; IV 10 mg/kg Cpd. No. 15, 3 h, Mouse 2 R tumor): BLOQ
Cpd. No. 15 Concentration in plasma ([1]; 1 h, mouse 1): BLOQ
Cpd. No. 15 Concentration in plasma ([1]; 1 h, mouse 2): BLOQ
Cpd. No. 15 Concentration in plasma ([1]; 3 h, mouse 1): BLOQ
Cpd. No. 15 Concentration in plasma ([1]; 3 h, mouse 2): BLOQ
SMILES: Cc1nnc2n1-c1sc(C#Cc3cnn(CCCC(=O)OCCCOc4cccc5c4CN(C4CCC(=O)NC4=O)C5=O)c3)c(Cc3ccccc3)c1COC2 (stereo not drawn) [Cpd. No. 15, 3-((2-(2,6-dioxopiperidin-3-yl)-1-oxoisoindolin-4-yl)oxy)propyl 4-(4-((3-benzyl-9-methyl-4H,6H-thieno[2,3-e][1,2,4]triazolo[3,4-c][1,4]oxazepin-2-yl)ethynyl)-1H-pyrazol-1-yl)butanoate]
Conversion (metabolism) in plasma and tumor tissue ([1]; RS4;11 tumor-bearing mice, IV 10 mg/kg): converted to Cpd. No. 52 in plasma and tumor tissue
Pharmacodynamic effect: BET protein degradation in tumor tissue (BET protein): induce BET protein degradation in tumor tissue

IC50 (MDA-MB-231; Homo sapiens, MDA-MB-231, 96 h): 25.8 nM
IC50 (MOLM13; Homo sapiens, MOLM-13, 96 h): 0.6 nM
SMILES: Cc1nnc2n1-c1sc(C#Cc3cnn(CCOC(=O)CCCCc4cccc5c4CN(C4CCC(=O)NC4=O)C5=O)c3)c(Cc3ccccc3)c1COC2 (stereo not drawn) [compound 32, 2-(4-((3-benzyl-9-methyl-4H,6H-thieno[2,3-e][1,2,4]triazolo[3,4-c][1,4]oxazepin-2-yl)ethynyl)-1H-pyrazol-1-yl)ethyl 5-(2-(2,6-dioxopiperidin-3-yl)-1-oxoisoindolin-4-yl)pentanoate]

IC50 (MDA-MB-231; Homo sapiens, MDA-MB-231, 96 h): 8.4 nM
IC50 (MOLM13; Homo sapiens, MOLM-13, 96 h): 0.7 nM
SMILES: Cc1nnc2n1-c1sc(C#Cc3cnn(CC(=O)OCCCCc4cccc5c4CN(C4CCC(=O)NC4=O)C5=O)c3)c(Cc3ccccc3)c1COC2 (stereo not drawn) [compound 34, 4-(2-(2,6-dioxopiperidin-3-yl)-1-oxoisoindolin-4-yl)butyl 2-(4-((3-benzyl-9-methyl-4H,6H-thieno[2,3-e][1,2,4]triazolo[3,4-c][1,4]oxazepin-2-yl)ethynyl)-1H-pyrazol-1-yl)acetate]

IC50 (MDA-MB-231; Homo sapiens, MDA-MB-231, 96 h): > 100 nM
IC50 (MOLM13; Homo sapiens, MOLM-13, 96 h): 22 nM
SMILES: Cc1nnc2n1-c1sc(C#Cc3cnn(CC(=O)OCCCc4cccc5c4CN(C4CCC(=O)NC4=O)C5=O)c3)c(Cc3ccccc3)c1COC2 (stereo not drawn) [compound 38, 3-(2-(2,6-dioxopiperidin-3-yl)-1-oxoisoindolin-4-yl)propyl 2-(4-((3-benzyl-9-methyl-4H,6H-thieno[2,3-e][1,2,4]triazolo[3,4-c][1,4]oxazepin-2-yl)ethynyl)-1H-pyrazol-1-yl)acetate]

Continued, molecule first:

SMILES: Cc1nnc2n1-c1sc(C#Cc3cnn(CCCC(=O)OCCC#Cc4cccc5c4CN(C4CCC(=O)NC4=O)C5=O)c3)c(Cc3ccccc3)c1COC2 (stereo not drawn) [Cpd. No. 16, 4-(2-(2,6-dioxopiperidin-3-yl)-1-oxoisoindolin-4-yl)but-3-yn-1-yl 4-(4-((3-benzyl-9-methyl-4H,6H-thieno[2,3-e][1,2,4]triazolo[3,4-c][1,4]oxazepin-2-yl)ethynyl)-1H-pyrazol-1-yl)butanoate]
Pharmacodynamic effect: BET protein degradation in tumor tissue (BET protein): induce BET protein degradation in tumor tissue
IC50 (MDA-MB-231; Homo sapiens, MDA-MB-231, 96 h): 1.5 nM
IC50 (MDA-MB-231): 0.9 nM
IC50 (MOLM13; Homo sapiens, MOLM-13, 96 h): 0.4 nM
IC50 (MOLM13): 0.2 nM

SMILES: Cc1nnc2n1-c1sc(C#Cc3ccn(CCC(=O)OCCCNc4cccc5c4CN(C4CCC(=O)NC4=O)C5=O)n3)c(Cc3ccccc3)c1COC2 (stereo not drawn) [compound 30, 3-((2-(2,6-dioxopiperidin-3-yl)-1-oxoisoindolin-4-yl)amino)propyl 3-(3-((3-benzyl-9-methyl-4H,6H-thieno[2,3-e][1,2,4]triazolo[3,4-c][1,4]oxazepin-2-yl)ethynyl)-1H-pyrazol-1-yl)propanoate]
IC50 (MDA-MB-231; Homo sapiens, MDA-MB-231, 96 h): 148 nM
IC50 (MOLM13; Homo sapiens, MOLM-13, 96 h): 0.6 nM

SMILES: Cc1nnc2n1-c1sc(C#Cc3cnn(CCOC(=O)CCC#Cc4cccc5c4CN(C4CCC(=O)NC4=O)C5=O)c3)c(Cc3ccccc3)c1COC2 (stereo not drawn) [compound 31, 2-(4-((3-benzyl-9-methyl-4H,6H-thieno[2,3-e][1,2,4]triazolo[3,4-c][1,4]oxazepin-2-yl)ethynyl)-1H-pyrazol-1-yl)ethyl 5-(2-(2,6-dioxopiperidin-3-yl)-1-oxoisoindolin-4-yl)pent-4-ynoate]
IC50 (MDA-MB-231): 9.1 nM and 5.6 nM
IC50 (MOLM13; Homo sapiens, MOLM-13, 96 h): 1.3 nM

SMILES: Cc1nnc2n1-c1sc(C#Cc3cnn(CCOC(=O)CCC#Cc4cccc5c4CN(C4CCC(=O)NC4=O)C5=O)c3)c(Cc3ccccc3)c1COC2 (stereo not drawn) [compound 33, 2-(4-((3-benzyl-9-methyl-4H,6H-thieno[2,3-e][1,2,4]triazolo[3,4-c][1,4]oxazepin-2-yl)ethynyl)-1H-pyrazol-1-yl)ethyl 5-(2-(2,6-dioxopiperidin-3-yl)-1-oxoisoindolin-4-yl)pent-4-ynoate]
IC50 (MDA-MB-231): 35.6 nM
IC50 (MOLM13): 1.6 nM

SMILES: Cc1nnc2n1-c1sc(C#Cc3cnn(CCCC(=O)OCC#Cc4cccc5c4CN(C4CCC(=O)NC4=O)C5=O)c3)c(Cc3ccccc3)c1COC2 (stereo not drawn) [compound 41, 3-(2-(2,6-dioxopiperidin-3-yl)-1-oxoisoindolin-4-yl)prop-2-yn-1-yl 4-(4-((3-benzyl-9-methyl-4H,6H-thieno[2,3-e][1,2,4]triazolo[3,4-c][1,4]oxazepin-2-yl)ethynyl)-1H-pyrazol-1-yl)butanoate]
IC50 (MDA-MB-231; Homo sapiens, MDA-MB-231, 96 h): 1.2 nM
IC50 (MOLM13; Homo sapiens, MOLM-13, 96 h): 3.8 nM

SMILES: Cc1nnc2n1-c1sc(C#Cc3ccc(CCCC(=O)OCCN4CCC(Nc5cccc6c5CN(C5CCC(=O)NC5=O)C6=O)CC4)nc3)c(Cc3ccccc3)c1COC2 (stereo not drawn) [compound 42, 2-(4-((2-(2,6-dioxopiperidin-3-yl)-1-oxoisoindolin-4-yl)amino)piperidin-1-yl)ethyl 4-(5-((3-benzyl-9-methyl-4H,6H-thieno[2,3-e][1,2,4]triazolo[3,4-c][1,4]oxazepin-2-yl)ethynyl)pyridin-2-yl)butanoate]
IC50 (MDA-MB-231; Homo sapiens, MDA-MB-231, 96 h): 4.9 nM
IC50 (MOLM13; Homo sapiens, MOLM-13, 96 h): 5.5 nM

SMILES: Cc1nnc2n1-c1sc(C#Cc3ccc(CCCC(=O)OCCN4CCN(c5cccc6c5C(=O)N(C5CCC(=O)NC5=O)C6=O)CC4)nc3)c(Cc3ccccc3)c1COC2 (stereo not drawn) [compound 43, 2-(4-(2-(2,6-dioxopiperidin-3-yl)-1,3-dioxoisoindolin-4-yl)piperazin-1-yl)ethyl 4-(5-((3-benzyl-9-methyl-4H,6H-thieno[2,3-e][1,2,4]triazolo[3,4-c][1,4]oxazepin-2-yl)ethynyl)pyridin-2-yl)butanoate]
IC50 (MDA-MB-231; Homo sapiens, MDA-MB-231, 96 h): > 100 nM
IC50 (MOLM13; Homo sapiens, MOLM-13, 96 h): > 100 nM

SMILES: Cc1nnc2n1-c1sc(C#Cc3cnn(CCCC(=O)OCCN4CCN(c5cccc6c5C(=O)N(C5CCC(=O)NC5=O)C6=O)CC4)c3)c(Cc3ccccc3)c1COC2 (stereo not drawn) [compound 44, 2-(4-(2-(2,6-dioxopiperidin-3-yl)-1,3-dioxoisoindolin-4-yl)piperazin-1-yl)ethyl 4-(4-((3-benzyl-9-methyl-4H,6H-thieno[2,3-e][1,2,4]triazolo[3,4-c][1,4]oxazepin-2-yl)ethynyl)-1H-pyrazol-1-yl)butanoate]
IC50 (MDA-MB-231; Homo sapiens, MDA-MB-231, 96 h): > 100 nM
IC50 (MOLM13; Homo sapiens, MOLM-13, 96 h): 4.3 nM
